Experiments:
Type in all cases: cell-based
[1] = test system: human monocyte-derived dendritic cells (moDCs); assay: IL-1β secretion by human moDCs treated with lipid and R848; conditions: human moDCs primed with R848 for 3 hours, then nigericin; FIG. 2B
Protocol: (§1) Human monocytes were isolated from Leukopaks purchased from Miltenyi using the StraightFrom Leukopak CD14 microbead kit (Miltenyi). Isolations were completed following manufacturer's instructions. Monocytes were then aliquoted and frozen in fetal bovine serum containing 10% dimethyl sulfoxide. For studies with monocyte-derived dendritic cell (moDC) cultures, monocytes were thawed and cultured in RPMI medium containing 10% FBS, 50 units/mL penicillin, […] streptomycin, 2 mM L-glutamine, 1 mM sodium pyruvate, […] beta-mercaptoethanol, 10 mM HEPES, and Gibco MEM non-essential amino acids (R10 media). To differentiate monocytes into moDCs, recombinant human GM-CSF (50 ng/mL) and IL-4 (25 ng/mL) were added to R10 media. Cells were cultured for 6 days with GM-CSF and IL-4, with an additional cell feeding with R10 containing GM-CSF and IL-4 on day 3.
Six days after differentiation, moDC were collected and counted. Cells were plated into 96-well flat-bottom plates at 1×10^5 cells/well. Cells were treated with or without 1 μg/mL R848 (final) and with or without a hyperactivating lipid (or vehicle control). In some experiments, MCC950, an inhibitor of the NLRP3 inflammasome, was added at a final concentration of 10 uM. In some experiments, nigericin, which causes NLRP3 inflammasome activation and subsequent pyroptosis, was used as a positive control at 20 uM. Cells and stimuli totaled a final volume of […].
Lipid stocks were then further diluted in PBS to treat cells.
(§2) After an overnight incubation, cells and culture supernatant were used for downstream readouts. One hundred and fifty microliters of cell supernatant were collected. Viability was measured using the CellTiter-Glo assay (Promega) which measures ATP content from cells. Fifty microliters of CellTiter-Glo reagent were added to 50 μL of cells. Luminescence was quantified on a SpectraMax m5e plate reader using an integration time of 500 milliseconds. Viability data were set relative to control conditions where cells were treated with only R848. To measure IL-1β secretion, the human IL-1β Lumit kit (Promega) was used to assay cell culture supernatant. Culture supernatant samples were incubated with enzyme-linked antibodies in a 384-well plate for 1 hour before addition of luminescent substrate. Samples were measured for luminescence with an integration time of 500 milliseconds. IL-1β concentrations of samples was determined by interpolation from a standard curve using 4-parameter logistic regression analysis. Studies were performed on three different human donor samples, and each biological condition was tested in triplicate. Graphed data represent means from each donor.
as §1, with “Human moDC Production. Human” for “Human”, “(Miltenyi) according to the” for “(Miltenyi). Isolations were completed following”, “To differentiate” for “For studies with”, “pyruvate, and” for “pyruvate,”, “beta-mercaptoethanol” for “beta-mercaptoethanol, 10 mM HEPES, and Gibco MEM non-essential amino acids”
Hyperactivating Lipid Formulation—Compound 10. Lipid stocks were formulated at 200 μg/mL lipid in 5% Kolliphor P407 (KP407) in PBS.

human moDCs [2] = assay: moDC viability by LDH release and CellTiter-Glo 2.0
Protocol: Monocyte Isolation, Storage, and Differentiation into moDC.
CellTiter-Glo 2.0 Cell Viability Assay. As an additional method to measure cell viability, CellTiter-Glo 2.0 Cell Viability Assay kit from Promega was used. CellTiter-Glo 2.0 reagent was used according to instructions of the manufacturer. Briefly, frozen reagent was thawed at 4° C. and aliquoted. Aliquots were stored at 4° C. in the dark. After removing 150 μL of the cell culture volume for use in other assays, cells were lysed with 50 μL/well CellTiter-Glo reagent by pipetting up and down. After incubating in the dark at RT for 10 min, samples were transferred to white opaque 96-well plates. Luminescence was measured for 500 ms/well using a Spectramax M3 plate reader. Luminescence values were normalized to the mean values of control samples and multiplied 100-fold to report values as percentage viability.

human moDCs [3] = assay: Cell viability of human moDCs (CellTiter-Glo); conditions: human
Protocol: as §2
Measurement of Cytokine Secretion and Cell Viability. After an overnight incubation, cells and culture supernatant were used for downstream readouts. One hundred and fifty microliters of cell culture supernatant were collected. Viability was measured using the CellTiter-Glo assay (Promega) which measures ATP content from cells. Fifty microliters of CellTiter-Glo reagent were added to 50 μL of cells. Luminescence was quantified on a SpectraMax m5e plate reader using an integration time of 500 milliseconds. Viability data were set relative to control conditions where cells were treated with only R848. To measure IL-1β secretion, the human IL-1β Lumit kit (Promega) was used. […] Samples were measured for luminescence with an integration time of 500 milliseconds. IL-1β concentrations of samples was determined by interpolation from a standard curve using 4-parameter logistic regression analysis. […]

For CO[C@@H]1C[C@@H](C[C@H]2CC[C@H](C)[C@H]([C@@H](C)C(=O)O)O2)O[C@]2(O[C@](C)([C@H]3CC[C@@](C)([C@@H]4O[C@@H]([C@H]5O[C@@](O)(CO)[C@H](C)C[C@@H]5C)C[C@@H]4C)O3)C[C@H]2C)[C@@H]1C [nigericin], the IL-1β secretion [1] was “IL-1β was produced”, the “cell viability (CellTiter-Glo)” value (human moDCs [2]) was “below 2%” and the “cell viability (LDH release assay)” value (human moDCs [2]) was “below 75%”. The “decrease in cell viability” value (human moDCs [3]) was “approximately 50%”.

Reference: patent publication US20260097111A1, “ETHER LIPIDS FOR HYPERACTIVATION OF MAMMALIAN DENDRITIC CELLS” (priority 2022, published 2026)
